Assay results from article PMC2680759, “Non-Invasive Molecular Imaging of Fibrosis Using a Collagen-Targeted Peptidomimetic of the Platelet Collagen Receptor Glycoprotein VI” (PLoS ONE, 2009).
Bridges are numbered along the chain shown (N, C = ends). Where no end group is shown, it is not given here.

Legend:
[1] = system: collagen rich lesions of fibrotic lungs; assay: Histochemical analysis of healthy and fibrotic lung sections; set-up: species or system mouse; conditions: paraffin embedded lung sections of bleomycin-treated mice, HRP-coupled streptavidin
Method: Figure 6 Imaging of lung fibrosis. A: Paraffin embedded sections of lungs from a bleomycin-treated mice were incubated with B-collagelin and detected using HRP-coupled streptavidin. Sections were counter-stained with hematoxylin. Contiguous serial sections were stained with picrosirius red. Representative images are shown. B: Whole body planar scintigraphy of a bleomycin-treated mouse (left) and a control mouse (right). Representative images acquired one hour after the injection of 99mTc-collagelin are shown. C: Corresponding lung autoradiography and histology (picrosirius staining) showing the colocalisation of 99mTc-collagelin with fibrosis. D: Lung autoradiogaphy and histology from a mice treated with the control 99mTc-Pc.

[2] = molecular target: fibrillar type I collagen (Homo sapiens, UniProt P02452+P08123); assay: SPR, biotin-peptides perfused over collagen-coated sensorchip; type: binding; conditions: fibrillar type I collagen on CM5-sensorchip
Sequence of fibrillar type I collagen (P02452 162-1218 limits assumed): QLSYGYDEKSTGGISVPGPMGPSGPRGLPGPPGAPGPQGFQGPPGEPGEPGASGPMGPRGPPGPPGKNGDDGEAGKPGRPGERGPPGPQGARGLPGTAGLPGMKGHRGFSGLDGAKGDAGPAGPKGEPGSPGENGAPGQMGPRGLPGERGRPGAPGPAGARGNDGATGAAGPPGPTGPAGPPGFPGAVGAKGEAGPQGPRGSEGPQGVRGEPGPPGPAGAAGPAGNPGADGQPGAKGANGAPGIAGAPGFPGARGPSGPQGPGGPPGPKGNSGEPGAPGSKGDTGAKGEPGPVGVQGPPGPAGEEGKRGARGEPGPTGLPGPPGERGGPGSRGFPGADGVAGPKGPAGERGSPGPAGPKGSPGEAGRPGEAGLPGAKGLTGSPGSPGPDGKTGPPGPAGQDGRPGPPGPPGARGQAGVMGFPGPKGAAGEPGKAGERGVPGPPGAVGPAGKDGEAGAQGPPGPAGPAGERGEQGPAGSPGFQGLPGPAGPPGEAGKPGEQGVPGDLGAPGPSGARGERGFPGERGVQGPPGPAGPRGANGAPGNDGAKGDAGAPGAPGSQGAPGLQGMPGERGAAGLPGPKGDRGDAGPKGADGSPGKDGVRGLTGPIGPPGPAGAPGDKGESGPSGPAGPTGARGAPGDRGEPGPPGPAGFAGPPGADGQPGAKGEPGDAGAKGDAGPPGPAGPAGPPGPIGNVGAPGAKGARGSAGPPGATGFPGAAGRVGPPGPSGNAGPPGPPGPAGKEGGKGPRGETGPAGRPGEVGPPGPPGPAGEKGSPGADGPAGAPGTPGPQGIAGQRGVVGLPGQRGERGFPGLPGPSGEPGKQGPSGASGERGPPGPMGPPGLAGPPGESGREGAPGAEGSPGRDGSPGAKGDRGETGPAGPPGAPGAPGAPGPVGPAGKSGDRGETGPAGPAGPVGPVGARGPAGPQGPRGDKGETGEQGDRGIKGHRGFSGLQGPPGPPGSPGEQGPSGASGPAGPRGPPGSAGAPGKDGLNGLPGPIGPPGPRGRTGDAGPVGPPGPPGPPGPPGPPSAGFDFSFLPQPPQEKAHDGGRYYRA
Sequence of fibrillar type I collagen (P08123 80-1119 limits assumed): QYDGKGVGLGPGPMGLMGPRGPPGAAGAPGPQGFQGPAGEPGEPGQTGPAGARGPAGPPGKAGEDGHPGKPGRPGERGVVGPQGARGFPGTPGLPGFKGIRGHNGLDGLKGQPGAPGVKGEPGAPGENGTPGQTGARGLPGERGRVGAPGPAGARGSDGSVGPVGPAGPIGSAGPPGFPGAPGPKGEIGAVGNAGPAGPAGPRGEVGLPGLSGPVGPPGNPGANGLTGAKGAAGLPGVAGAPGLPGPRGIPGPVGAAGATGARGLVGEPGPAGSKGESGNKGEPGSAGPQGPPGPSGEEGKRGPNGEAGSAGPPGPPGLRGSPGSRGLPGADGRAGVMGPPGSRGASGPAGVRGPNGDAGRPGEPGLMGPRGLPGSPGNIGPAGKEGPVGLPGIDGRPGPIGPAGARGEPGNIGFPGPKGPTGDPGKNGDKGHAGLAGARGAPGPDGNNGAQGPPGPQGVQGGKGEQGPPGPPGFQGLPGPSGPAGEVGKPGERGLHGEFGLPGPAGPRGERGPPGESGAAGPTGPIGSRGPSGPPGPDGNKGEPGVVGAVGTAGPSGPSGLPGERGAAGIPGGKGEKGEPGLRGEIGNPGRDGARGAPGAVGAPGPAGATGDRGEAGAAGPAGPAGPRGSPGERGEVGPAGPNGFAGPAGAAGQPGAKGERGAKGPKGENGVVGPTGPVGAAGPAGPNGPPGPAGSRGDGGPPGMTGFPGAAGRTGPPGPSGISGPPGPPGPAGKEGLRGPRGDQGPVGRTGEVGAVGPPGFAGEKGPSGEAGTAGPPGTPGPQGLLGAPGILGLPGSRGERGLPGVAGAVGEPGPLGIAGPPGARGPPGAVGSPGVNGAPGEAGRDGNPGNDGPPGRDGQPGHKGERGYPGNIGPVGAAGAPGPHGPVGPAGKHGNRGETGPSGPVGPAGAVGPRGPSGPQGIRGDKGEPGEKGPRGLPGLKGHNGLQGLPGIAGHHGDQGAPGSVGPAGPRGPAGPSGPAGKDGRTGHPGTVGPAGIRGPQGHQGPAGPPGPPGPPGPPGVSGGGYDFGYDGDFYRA
Method: 9O12.2 IgG was injected over biotin-peptides coupled to an SA-sensorchip in a Biacore 2000 instrument. […] In some experiments, the peptide was reduced by DTT on the sensor chip before the IgG was injected. Competition experiments were performed by mixing the IgG with recombinant soluble GPVI (25 µg.mL^−1). Collagen binding to the peptide was analyzed by injecting type-I collagen (200 µg.mL^−1) onto the peptide-coated sensorchip. Conversely, biotin-peptides (125, 250, 500 and 1000 µg.mL^−1) were perfused over fibrillar collagen immobilized on a CM5-sensorchip.

Row | Binding to collagen-coated sensorchip [2] | Compound | Histochemical staining of lung sections [1]
1 | – | CSCC[C@@H]1NC(=O)[C@H](C(C)C)NC(=O)[C@H](CCCNC(=N)N)NC(=O)CNC(=O)[C@@H]2CCCN2C(=O)[C@@H](NC(=O)CNC(=O)[C@H](CO)NC(=O)CNC(=O)[C@H](CO)NC(=O)CCCC[C@@H]2SC[C@@H]3NC(=O)N[C@@H]32)CSSC[C@@H](C(N)=O)NC(=O)[C@@H]2CCCN2C(=O)CNC(=O)[C@H](CCC(=O)O)NC(=O)[C@H](CC(=O)O)NC(=O)[C@H](CC(=O)O)NC(=O)CNC(=O)[C@H](CC(C)C)NC(=O)[C@H](Cc2c[nH]cn2)NC(=O)[C@H](CC(C)C)NC(=O)CNC(=O)[C@H](Cc2c[nH]cn2)NC1=O [collagelin] | coincided with the collagen rich lesions
2 | did not bind | SGSGCGPQGARGLTGASAGGPC (disulfide 5-22 (inferred)) [reference compound] | –
